The values that follow come from publication PMC7991740, “Introduction of Non-natural Amino Acids Into T-Cell Epitopes to Mitigate Peptide-Specific T-Cell Responses” (Frontiers in Immunology, 2021).

SMILES strings stand for the structures. Where two headings read alike, the source gives them in different places. *1 amine or outer side, *2 acyl side, *3 side chain or, on linkers, in order; H or OH if unused. Where a SMILES comes first, the peptide text is derived from it. [ ]: non-standard residue; d: D form. X1 = NCCCC[C@@H](C(=O)[*:2])N(C[C@@H]1CCCN1)[*:1]

What all share (assay): biochemical
Common to all, as to type: binding

For one assay, the target named is T1, HLA-DRB1*01:01 (Homo sapiens, UniProt P01903+P01911, A100R/D57E/F55L/F60I/F76Y/I96L/L162R/M171V/P40L/Q125E/R42F/V115G/Y59C).
T1 construct: Human leukocyte antigen-DR molecules were immunopurified from homozygous EBV B lymphoblastoid cells; endogenous in cells

The target in a further assay is HLA-DRB1*11:01 (Homo sapiens, UniProt P01903+P01911, A100R/A169T/A87E/I96F/K41T/L162R/M171V/P40S/Q125H/Q178H/Q39Y/Q99D/R42S/S66Y/T262R/V115G/W38E).
HLA-DRB1*11:01, sequence (P01903 26-254 limits assumed, other chains not shown): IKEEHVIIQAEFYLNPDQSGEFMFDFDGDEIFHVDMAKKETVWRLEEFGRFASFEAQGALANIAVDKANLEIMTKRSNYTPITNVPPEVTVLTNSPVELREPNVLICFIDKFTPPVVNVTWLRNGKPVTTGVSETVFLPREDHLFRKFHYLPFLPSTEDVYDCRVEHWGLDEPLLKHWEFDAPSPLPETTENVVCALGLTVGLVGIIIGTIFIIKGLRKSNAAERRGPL
The next assay addresses HLA-DRB1*07:01 (Homo sapiens, UniProt P01903+P01911, A100R/A102G/A103Q/D57E/D86V/E43K/F76Y/K127E/L162R/M171V/P40G/Q125H/Q99D/R33Q/R42Y/R54Q/S133A/S66F/T210M/V115G/Y107V/Y59L/Y89S).
The target of a further assay is T2, HLA-DRB1*04:01 (Homo sapiens, UniProt P01903+P01911, A100K/A169T/F76Y/I96L/K127E/L162R/M171V/N62H/P40V/Q125Y/R42H/S133A/S149N/S66Y/V115G/V209L/W38E).
T2 construct: Human leukocyte antigen-DR molecules were immunopurified from homozygous EBV B lymphoblastoid cells; endogenous in cells

For another assay, the target named is T3, HLA-DRB5*01:01 (Homo sapiens, UniProt P01903+Q30154).
T3 construct: Human leukocyte antigen-DR molecules were immunopurified from homozygous EBV B lymphoblastoid cells; endogenous in cells

Setting [1] is: […], mean of at least two independent experiments, read-out: IC50 DRB1*0101.
Where [2] appears, read: […], mean of at least two independent experiments, read-out: IC50 DRB1*1101 (converted).
[3] abbreviates: […], mean of at least two independent experiments, read-out: IC50 DRB1*0701 (converted).
Where [4] appears, read: […], mean of at least two independent experiments, read-out: IC50 DRB1*0401.
The mark [5] stands for this setting: […], mean of at least two independent experiments, read-out: IC50 DRB5*0101.

`CC(C)C[C@H](NC(=O)[C@H](CCCCN)NC(=O)[C@H](CC(C)C)NC(=O)[C@@H](NC(=O)CN(CC(N)=O)C(=O)[C@H](CCC(N)=O)NC(=O)[C@H](CCCCN)NC(=O)[C@@H](NC(=O)[C@H](Cc1ccc(O)cc1)NC(=O)[C@H](CCCCN)NC(=O)[C@@H]1CCCN1)C(C)C)[C@@H](C)O)C(=O)N[C@@H](C)C(=O)N[C@H](C(=O)O)[C@@H](C)O` [Pep7]: the half-inhibitory concentration (IC50) (commonly the concentration needed to halve the response being measured) against HLA-DRB1*01:01 (IC50 DRB1*0101) worked out at 0.3 nM; at HLA-DRB1*11:01, 200 nM; at HLA-DRB1*07:01, 16 nM; against HLA-DRB1*04:01, 450 nM; on HLA-DRB5*01:01, 15 nM.
For the molecule `CC(C)C[C@H](NC(=O)[C@@H](NC(=O)[C@H](CC(N)=O)NC(=O)[C@H](CCC(N)=O)NC(=O)[C@H](CCCCN)NC(=O)[C@@H](NC(=O)[C@H](Cc1ccc(O)cc1)NC(=O)[C@H](CCCCN)NC(=O)[C@@H]1CCCN1)C(C)C)[C@@H](C)O)C(=O)N[C@@H](CCCCN)C(=O)N[C@@H](CC(C)C)C(=O)N(C)CC(=O)N[C@H](C(=O)O)[C@@H](C)O` [Pep12], the IC50 on HLA-DRB1*01:01 (setting [1]) is 0.3 nM; at HLA-DRB1*11:01 (setting [2]), 14 nM; on HLA-DRB1*07:01 (setting [3]), 10 nM; on HLA-DRB1*04:01 (setting [4]), 4 nM; on HLA-DRB5*01:01 (setting [5]) it was 3 nM.
On the same counts, the results for `CC(C)C[C@H](NC(=O)[C@H](CCCCN)NC(=O)[C@H](CC(C)C)NC(=O)[C@@H](NC(=O)[C@H](CC(N)=O)NC(=O)[C@H](CCC(N)=O)NC(=O)[C@H](CCCCN)NC(=O)[C@@H](NC(=O)[C@H](Cc1ccc(O)cc1)NC(=O)[C@H](CCCCN)NC[C@@H]1CCCN1)C(C)C)[C@@H](C)O)C(=O)N[C@@H](C)C(=O)N[C@H](C(=O)O)[C@@H](C)O` [Rd1] (H-[X1]YVKQNTLKLAT-OH; N-terminus and C-terminus assumed) are 2 nM, 2500 nM, 140 nM, 25 nM and 120 nM.
